Laboratory results reported in the kinase profiling compilation of Christmann-Franck et al. (2016).
Several values for one entry are separate records, joined by “and”; a condition that tells them apart may be missing. Equal values may be shown once.

How the values were obtained:
Assay in all cases: KINOMEscan competition binding
Details in all cases: compound 10.0 µM
[1] = target: FLT3 (human) (UniProt P36888)
[2] = target: MAP3K5 (human) (UniProt Q99683)
[3] = target: CAMKK2 (human) (UniProt Q96RR4)
[4] = target: PIM1 (human) (UniProt P11309)
[5] = target: ACVR2A (human) (UniProt P27037)
Sequence of ACVR2A (human) (P27037 whole entry, looked up): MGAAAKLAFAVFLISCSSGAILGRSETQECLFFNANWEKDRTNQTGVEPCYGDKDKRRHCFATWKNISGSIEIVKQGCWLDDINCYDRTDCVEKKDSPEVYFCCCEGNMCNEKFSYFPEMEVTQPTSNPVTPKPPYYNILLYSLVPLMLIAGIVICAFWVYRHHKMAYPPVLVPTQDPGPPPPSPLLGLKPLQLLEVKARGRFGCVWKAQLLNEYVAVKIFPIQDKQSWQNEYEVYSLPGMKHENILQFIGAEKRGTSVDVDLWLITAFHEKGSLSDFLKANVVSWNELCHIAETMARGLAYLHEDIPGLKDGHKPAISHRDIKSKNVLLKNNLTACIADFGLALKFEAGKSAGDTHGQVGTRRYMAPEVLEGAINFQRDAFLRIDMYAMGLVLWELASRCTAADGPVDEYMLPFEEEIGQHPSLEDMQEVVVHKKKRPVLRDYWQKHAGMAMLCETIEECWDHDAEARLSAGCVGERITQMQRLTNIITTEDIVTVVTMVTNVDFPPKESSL

[6] = target: PLK3 (human) (UniProt Q9H4B4)
[7] = target: FGFR1 (human) (UniProt P11362)
[8] = target: PLK4 (human) (UniProt O00444)
[9] = target: PRKCH (human) (UniProt P24723)
[10] = target: RPS6KA2 KD1 (human) (UniProt Q15349)
[11] = target: HIPK3 (human) (UniProt Q9H422)
[12] = target: AURKB (human) (UniProt Q96GD4)
[13] = target: MST4 (human) (UniProt Q9P289)
[14] = target: ACVR1B (human) (UniProt P36896)
[15] = target: GAK (human) (UniProt O14976)
[16] = target: ALK (human) (UniProt Q9UM73)
[17] = target: CDK5 (human) (UniProt Q00535)
[18] = target: SIK1 (human) (UniProt P57059)
[19] = target: LATS2 (human) (UniProt Q9NRM7)
[20] = target: AKT2 (human) (UniProt P31751)
[21] = target: GSK3B (human) (UniProt P49841)
[22] = target: EIF2AK1 (human) (UniProt Q9BQI3)
[23] = target: CHUK (human) (UniProt O15111)
[24] = target: NUAK1 (human) (UniProt O60285)
Sequence of NUAK1 (human) (O60285 whole entry, looked up): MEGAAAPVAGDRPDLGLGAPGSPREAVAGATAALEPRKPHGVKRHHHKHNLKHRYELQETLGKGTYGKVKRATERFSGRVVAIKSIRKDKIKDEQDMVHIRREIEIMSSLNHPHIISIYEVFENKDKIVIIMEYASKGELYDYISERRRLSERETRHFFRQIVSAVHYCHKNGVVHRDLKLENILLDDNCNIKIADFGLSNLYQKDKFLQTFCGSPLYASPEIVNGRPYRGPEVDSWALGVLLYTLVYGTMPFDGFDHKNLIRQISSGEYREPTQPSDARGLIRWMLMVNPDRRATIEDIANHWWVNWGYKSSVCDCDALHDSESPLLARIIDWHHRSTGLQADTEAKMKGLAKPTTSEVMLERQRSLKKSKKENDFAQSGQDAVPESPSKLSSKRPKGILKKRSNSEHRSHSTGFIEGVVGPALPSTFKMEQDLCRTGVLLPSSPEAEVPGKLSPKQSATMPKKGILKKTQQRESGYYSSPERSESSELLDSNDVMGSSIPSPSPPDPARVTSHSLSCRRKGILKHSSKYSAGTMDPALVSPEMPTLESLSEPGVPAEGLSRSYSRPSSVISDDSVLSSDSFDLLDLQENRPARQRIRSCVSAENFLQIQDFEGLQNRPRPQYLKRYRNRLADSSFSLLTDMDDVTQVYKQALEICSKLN

[25] = target: TNIK (human) (UniProt Q9UKE5)
[26] = target: ERBB3 (human) (UniProt P21860)
Sequence of ERBB3 (human) (P21860 whole entry, looked up): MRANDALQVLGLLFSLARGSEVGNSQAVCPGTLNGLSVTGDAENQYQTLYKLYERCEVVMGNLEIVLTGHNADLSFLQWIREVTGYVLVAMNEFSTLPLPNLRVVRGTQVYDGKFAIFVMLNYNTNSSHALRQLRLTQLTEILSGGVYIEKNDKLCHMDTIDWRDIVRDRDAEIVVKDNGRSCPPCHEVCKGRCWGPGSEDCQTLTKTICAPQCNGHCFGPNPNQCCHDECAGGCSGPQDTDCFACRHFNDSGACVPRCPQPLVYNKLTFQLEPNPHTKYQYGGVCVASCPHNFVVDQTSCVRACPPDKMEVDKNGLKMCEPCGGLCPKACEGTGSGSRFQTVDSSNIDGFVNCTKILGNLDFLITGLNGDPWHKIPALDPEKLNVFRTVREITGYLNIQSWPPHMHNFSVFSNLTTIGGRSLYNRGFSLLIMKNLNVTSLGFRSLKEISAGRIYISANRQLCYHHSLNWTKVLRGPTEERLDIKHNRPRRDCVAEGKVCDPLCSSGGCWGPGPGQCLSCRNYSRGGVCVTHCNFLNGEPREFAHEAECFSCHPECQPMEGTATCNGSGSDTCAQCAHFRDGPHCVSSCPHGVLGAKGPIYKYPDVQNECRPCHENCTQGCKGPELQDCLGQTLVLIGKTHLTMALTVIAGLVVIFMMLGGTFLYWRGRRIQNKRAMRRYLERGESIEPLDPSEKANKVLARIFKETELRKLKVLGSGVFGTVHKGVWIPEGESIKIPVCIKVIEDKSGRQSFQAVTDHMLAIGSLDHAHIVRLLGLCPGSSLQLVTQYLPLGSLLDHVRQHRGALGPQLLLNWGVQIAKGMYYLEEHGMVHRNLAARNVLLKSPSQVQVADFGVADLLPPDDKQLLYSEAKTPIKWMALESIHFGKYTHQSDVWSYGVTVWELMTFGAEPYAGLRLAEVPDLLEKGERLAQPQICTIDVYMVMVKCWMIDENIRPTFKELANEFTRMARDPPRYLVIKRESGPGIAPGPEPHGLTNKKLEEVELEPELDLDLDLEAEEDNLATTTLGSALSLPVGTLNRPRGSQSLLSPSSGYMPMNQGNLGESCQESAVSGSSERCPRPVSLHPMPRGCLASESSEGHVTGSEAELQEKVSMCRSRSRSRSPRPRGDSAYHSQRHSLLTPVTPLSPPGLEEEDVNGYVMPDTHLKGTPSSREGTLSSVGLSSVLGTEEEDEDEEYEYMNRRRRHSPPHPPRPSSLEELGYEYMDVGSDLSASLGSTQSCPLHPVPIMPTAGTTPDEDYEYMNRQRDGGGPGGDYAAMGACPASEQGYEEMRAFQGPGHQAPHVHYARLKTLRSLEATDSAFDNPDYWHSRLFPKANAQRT

[27] = target: SGK3 (human) (UniProt Q96BR1)
Sequence of SGK3 (human) (Q96BR1 whole entry, looked up): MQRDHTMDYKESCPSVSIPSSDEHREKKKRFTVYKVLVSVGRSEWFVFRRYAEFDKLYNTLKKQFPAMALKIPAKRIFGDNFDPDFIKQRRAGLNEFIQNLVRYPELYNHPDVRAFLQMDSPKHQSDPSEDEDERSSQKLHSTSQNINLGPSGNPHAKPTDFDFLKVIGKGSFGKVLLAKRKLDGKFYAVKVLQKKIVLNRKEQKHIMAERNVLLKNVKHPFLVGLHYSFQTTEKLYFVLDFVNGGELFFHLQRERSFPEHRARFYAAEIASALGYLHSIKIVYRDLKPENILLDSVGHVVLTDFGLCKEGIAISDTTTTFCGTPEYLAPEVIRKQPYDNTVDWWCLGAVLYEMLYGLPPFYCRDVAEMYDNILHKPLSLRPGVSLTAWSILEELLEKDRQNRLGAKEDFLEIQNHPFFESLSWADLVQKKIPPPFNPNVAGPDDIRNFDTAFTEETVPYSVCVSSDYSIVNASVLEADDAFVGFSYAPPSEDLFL

[28] = test system: FLT3 (human), P36888 [R834Q]
[29] = target: DYRK1A (human) (UniProt Q13627)
[30] = target: PRKD3 (human) (UniProt O94806)
[31] = target: RIPK4 (human) (UniProt P57078)
[32] = target: DMPK (human) (UniProt Q09013)
[33] = target: BMPR1A (human) (UniProt P36894)
[34] = target: PAK3 (human) (UniProt O75914)
[35] = target: INSR (human) (UniProt P06213)
Sequence of INSR (human) (P06213 whole entry, looked up): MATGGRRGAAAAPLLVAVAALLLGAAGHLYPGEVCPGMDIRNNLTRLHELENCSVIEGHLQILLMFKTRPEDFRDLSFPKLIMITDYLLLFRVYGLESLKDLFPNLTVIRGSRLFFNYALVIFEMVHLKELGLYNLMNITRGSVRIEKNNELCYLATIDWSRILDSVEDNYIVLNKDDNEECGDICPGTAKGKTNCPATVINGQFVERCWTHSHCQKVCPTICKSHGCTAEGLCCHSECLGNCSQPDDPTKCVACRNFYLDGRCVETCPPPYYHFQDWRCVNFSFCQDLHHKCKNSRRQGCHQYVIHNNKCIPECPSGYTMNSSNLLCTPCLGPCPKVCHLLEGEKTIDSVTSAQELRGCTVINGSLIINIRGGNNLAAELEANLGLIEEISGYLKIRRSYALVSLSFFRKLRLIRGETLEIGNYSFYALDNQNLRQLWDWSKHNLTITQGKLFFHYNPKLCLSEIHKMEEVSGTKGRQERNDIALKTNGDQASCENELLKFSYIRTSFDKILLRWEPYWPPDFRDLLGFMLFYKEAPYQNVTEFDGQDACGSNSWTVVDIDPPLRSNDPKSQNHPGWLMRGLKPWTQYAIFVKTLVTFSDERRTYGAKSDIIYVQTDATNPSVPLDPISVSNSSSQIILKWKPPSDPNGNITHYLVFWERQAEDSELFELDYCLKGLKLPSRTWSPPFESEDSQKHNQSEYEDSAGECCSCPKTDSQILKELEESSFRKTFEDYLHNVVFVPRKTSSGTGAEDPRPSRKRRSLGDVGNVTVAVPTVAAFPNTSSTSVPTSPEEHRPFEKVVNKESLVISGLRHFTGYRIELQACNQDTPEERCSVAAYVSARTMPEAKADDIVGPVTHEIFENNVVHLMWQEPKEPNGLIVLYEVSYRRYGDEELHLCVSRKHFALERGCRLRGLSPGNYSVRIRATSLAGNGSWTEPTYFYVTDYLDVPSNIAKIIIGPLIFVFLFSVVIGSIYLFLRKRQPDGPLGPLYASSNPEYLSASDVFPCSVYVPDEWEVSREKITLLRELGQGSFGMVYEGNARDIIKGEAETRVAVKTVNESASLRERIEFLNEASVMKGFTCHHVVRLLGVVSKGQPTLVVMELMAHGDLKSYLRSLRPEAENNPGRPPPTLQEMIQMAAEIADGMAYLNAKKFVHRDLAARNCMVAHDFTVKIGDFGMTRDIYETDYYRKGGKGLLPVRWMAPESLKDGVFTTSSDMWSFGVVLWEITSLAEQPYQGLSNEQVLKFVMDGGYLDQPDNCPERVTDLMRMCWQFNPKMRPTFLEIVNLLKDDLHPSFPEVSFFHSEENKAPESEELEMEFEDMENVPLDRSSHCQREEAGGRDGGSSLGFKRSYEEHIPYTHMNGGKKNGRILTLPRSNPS

[36] = target: PRKCE (human) (UniProt Q02156)
[37] = target: ACVR1 (human) (UniProt Q04771)
Sequence of ACVR1 (human) (Q04771 whole entry, looked up): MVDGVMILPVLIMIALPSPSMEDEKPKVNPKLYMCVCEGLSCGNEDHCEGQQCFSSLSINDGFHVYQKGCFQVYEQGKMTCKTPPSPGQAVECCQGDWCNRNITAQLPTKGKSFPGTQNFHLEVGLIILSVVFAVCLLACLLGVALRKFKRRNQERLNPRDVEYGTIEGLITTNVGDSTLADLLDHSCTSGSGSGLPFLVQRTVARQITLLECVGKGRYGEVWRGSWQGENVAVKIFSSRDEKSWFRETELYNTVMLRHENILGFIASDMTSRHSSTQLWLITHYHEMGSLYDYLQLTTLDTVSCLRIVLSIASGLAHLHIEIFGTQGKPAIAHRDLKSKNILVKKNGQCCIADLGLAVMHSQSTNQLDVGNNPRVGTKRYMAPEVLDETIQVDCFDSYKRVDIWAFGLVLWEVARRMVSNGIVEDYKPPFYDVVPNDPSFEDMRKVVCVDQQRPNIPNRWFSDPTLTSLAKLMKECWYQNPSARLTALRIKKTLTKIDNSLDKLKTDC

[38] = target: MAP3K1 (human) (UniProt Q13233)
[39] = target: PAK4 (human) (UniProt O96013)
[40] = target: JAK1 JH1 catalytic (human) (UniProt P23458)

SMILES | kinase still bound, per cent of control [1] | kinase still bound, per cent of control [2] [%] | kinase still bound, per cent of control [3] [%] | kinase still bound, per cent of control [4] [%] | kinase still bound, per cent of control [5] [%] | kinase still bound, per cent of control [6] [%] | kinase still bound, per cent of control [7] [%] | kinase still bound, per cent of control [8] [%] | kinase still bound, per cent of control [9] [%] | kinase still bound, per cent of control [10] [%] | kinase still bound, per cent of control [11] [%] | kinase still bound, per cent of control [12] [%] | kinase still bound, per cent of control [13] [%] | kinase still bound, per cent of control [14] [%] | kinase still bound, per cent of control [15] [%] | kinase still bound, per cent of control [16] [%] | kinase still bound, per cent of control [17] [%] | kinase still bound, per cent of control [18] [%] | kinase still bound, per cent of control [19] [%] | kinase still bound, per cent of control [20] [%] | further results
O=C1NC(=O)/C(=C/c2ccc3nccc(-c4ccncc4)c3c2)S1 | 39% and 61% | 58 | 2 | 1 | 83 | 49 | 81 | 40 | 88 | 100 | 1.2 | 39 | 90 | 51 | 0 | 25 | 82 | 96 | 100 | 100 | kinase still bound, per cent of control [21]: 66%; kinase still bound, per cent of control [22]: 82%; kinase still bound, per cent of control [23]: 44%; kinase still bound, per cent of control [24]: 100%; kinase still bound, per cent of control [25]: 36%; kinase still bound, per cent of control [26]: 88%; kinase still bound, per cent of control [27]: 66% and 84%; kinase still bound, per cent of control [28]: 90%; kinase still bound, per cent of control [29]: 0%; kinase still bound, per cent of control [30]: 74%; kinase still bound, per cent of control [31]: 56%; kinase still bound, per cent of control [32]: 2.9%; kinase still bound, per cent of control [33]: 2%; kinase still bound, per cent of control [34]: 20%; kinase still bound, per cent of control [35]: 77%; kinase still bound, per cent of control [36]: 38%; kinase still bound, per cent of control [37]: 36%; kinase still bound, per cent of control [38]: 60%; kinase still bound, per cent of control [39]: 75%; kinase still bound, per cent of control [40]: 95%
CCN1CCN(C(=O)Cc2ccc(Nc3ncc(F)c(Nc4ccc(C(=O)Nc5ccccc5Cl)cc4)n3)cc2)CC1 | 0.7% | 100 | 48 | 60 | 2.2 | 82 | 14 | 0.25 | 100 | 65 | 12 | 14 | 43 | 45 | 5.7 | 22 | 79 | 28 | 100 | 95 | kinase still bound, per cent of control [21]: 61%; kinase still bound, per cent of control [22]: 66%; kinase still bound, per cent of control [23]: 84%; kinase still bound, per cent of control [24]: 18%; kinase still bound, per cent of control [25]: 45%; kinase still bound, per cent of control [26]: 45%; kinase still bound, per cent of control [27]: 100%; kinase still bound, per cent of control [28]: 36%; kinase still bound, per cent of control [29]: 47%; kinase still bound, per cent of control [30]: 100%; kinase still bound, per cent of control [31]: 31%; kinase still bound, per cent of control [32]: 100%; kinase still bound, per cent of control [33]: 3.3%; kinase still bound, per cent of control [34]: 12%; kinase still bound, per cent of control [35]: 78%; kinase still bound, per cent of control [36]: 100%; kinase still bound, per cent of control [37]: 13%; kinase still bound, per cent of control [38]: 97%; kinase still bound, per cent of control [39]: 47%; kinase still bound, per cent of control [40]: 6.9%
